Patent US10806794B2, “Protease inhibitors having enhanced features” (priority 2008, dated 2020)

Experiments:
[1] = system: HIV-1RF; test: Pre-exposure assay: CEM-SS cells treated before HIV-1RF infection, cell viability; assay type: cell-based; settings: for EC50: Human immunodeficiency virus 1, CEM-SS
Procedure: (§1) The effects of pre- and post-infection PI treatment on CEM-SS toxicity were assessed. […] Cell toxicity was monitored six days after infection using XTT reagent. In the post-exposure assay, test compounds were added to cells 0, 24, 48, or 72 h after HIV-1 infection, and cell viability was measured six days post-infection.

[2] = Plasma protein binding by equilibrium dialysis, human plasma; assay type: in vitro ADME; settings: human, plasma
Procedure: In assays to estimate binding of test compounds to plasma proteins, test compound solutions (5 μM) are prepared in buffer and species-specific plasma (final DMSO concentration 0.5%). The plasma-containing solution is added to one side of the membrane of an equilibrium dialysis system, and the plasma-free is added to the other side. Dialysis was allowed to reach equilibrium by incubation for two hours at 37° C. The concentration of compound on both sides of the membrane was measured using LC-MS/MS.

[3] = system: HIV-1 virions; test: Infectivity of HIV-1 virions from treated cells on naive CEM-SS cells; assay type: cell-based
Procedure: In concert with p24 analysis, cell supernatants collected from cells exposed to test compounds at 8, 16, or 24 hours post-infection were used to infect naïve CEM-SS cells. Cell viability was measured six days post-infection as a measure of virus infectivity (Table 5).

[4] = system: HIV-1RF; test: p24 levels after single high MOI HIV-1RF infection of CEM-SS cells, time of addition; assay type: cell-based
Procedure: The cytoprotective effect against HIV of the PEG-protease inhibitor conjugates was evaluated during a single round of high multiplicity of infection (“MOI”) HIV-1 infection in CEM-SS cells. CEM-SS cells were incubated for one hour with a single high MOI dose of HIV-1RF. Cells were washed to remove free virus, then test compounds were added to cells at 0, 2, 4, 6, 8, 16, or 24 hours after HIV-1 infection. To monitor viral replication, cell supernatants were analyzed at 30 hours post-infection for levels of the HIV capsid protein p24 (FIG. 1). […] Nevirapine inhibited viral replication at 1 μM when added to cells up to four hours post-infection, and at 10 μM when added up to eight hours post-infection.

[5] = system: HIV-1 HT/92/599; test: HIV-1 reverse transcriptase activity after infection of fresh human PBMCs; assay type: cell-based; settings: read-out: PBMC/HIV-1HT/92/599 EC50 ± SD; seven days, reverse transcriptase activity
Procedure: Fresh human peripheral blood mononuclear cells (PBMCs) obtained from a commercial source were purified following centrifugation using a Ficoll-Hypaque density gradient. Viable cells were induced to proliferate in the presence of PHA-P and recombinant human IL-2 for 72 hours. […] Cell supernatant containing HIV-1 viral was incubated for 90 minutes at 37° C. with a reaction mixture containing EGTA, Triton X-100, Tris (pH 7.4), DTT, MgCl2, poly rA, oligo dT, and tritiated thymidine triphosphate (TTP). Incorporation of TTP into DNA was monitored by spotting the reaction mixture onto a DEAE filter mat, followed by washes with 5% phosphate buffer, distilled water, and 70% ethanol, and subsequent drying of the mat. Radioactivity was measured using a Wallac 1450 Microbeta Trilux liquid scintillation counter using Opti-Fluor O. Test compound-associated toxicity was measured in PBMCs cultured for seven days in the absence of virus using XTT reagent. […] TI was calculated as TC50/EC50.

[6] = system: human monocytes; test: Toxicity in human monocytes in the absence of viral infection; settings: human
Procedure: (§2) Fresh human monocytes were infected with the BaL strain of HIV-1 in the presence of test compounds. After seven days in culture, HIV-1 replication was evaluated by measurement of HIV-1 viral capsid protein (p24) in the tissue culture supernatant (Table 7). […] A TI was calculated as described above using TC50 values derived from cell toxicity data in response to test compounds in the absence of viral infection.

[7] = system: CEM-SS cells; test: Post-exposure assay: toxicity in CEM-SS cells; settings: human
Procedure: as §1

[8] = system: HIV-1RF; test: Post-exposure assay: compounds added after HIV-1 infection of CEM-SS cells, cell viability; assay type: cell-based; settings: Human immunodeficiency virus 1, CEM-SS
Procedure: as §1

[9] = system: HIV-1BaL; test: HIV-1 p24 levels after infection of fresh human monocyte/macrophages; assay type: cell-based; settings: Human immunodeficiency virus 1, Monocyte, 168 h, read-out: Monocyte/HIV-1BaL EC50, seven days, p24
Procedure: Mononuclear cells were isolated from fresh human peripheral blood cells by Ficoll-Hypaque density gradient by centrifugation at 600 g for 30 minutes. Banded peripheral blood mononuclear cells (PBMCs) were aspirated from the resulting interface and washed with phosphate buffered saline by low speed centrifugation. […] Cells were allowed to attach for 2 to 12 h at 37° C., then washed with Dulbecco's phosphate buffered saline (DPBS). Monocyte-macrophage monolayer formation was induced by incubation in growth medium (RPMI 1640 medium supplemented with 10% fetal bovine serum, 2 mmol/L L-glutamine, 100 Units/mL penicllin and 10 μg/mL streptomycin) for 7 days. Residual PBMCs were removed by washing the cell monolayers with DPBS. After washing, test compound diluted in growth medium was added to cells. Immediately following test compound addition, HIV-1 virus was added to the cells at multiplicity of infection (MOI)=0.05-0.10. After 7 days in culture, HIV-1 replication was quantified by ELISA measurement of cell-free HIV-1 viral capsid protein (p24) in the tissue culture supernatant of treated monocyte-macrophage monolayers. ELISA to quantify p24 was performed according to manufacturer's instructions (Perkin Elmer, Waltham, Mass.). The quantity of free HIV-1 p24 antigen in the sample was determined by comparing its absorbance at 490 nm to that of control standards.
as §2

CC(C)(C)NC(=O)[C@@H]1C[C@@H]2CCCC[C@@H]2CN1C[C@@H](O)[C@H](Cc1ccccc1)NC(=O)[C@H](CC(N)=O)NC(=O)c1ccc2ccccc2n1 [Saquinavir]
EC50 ([1]; 2 h): 20 nM | EC50 ([1]; 8 h): 50 nM | EC50 ([1]; 24 h): 40 nM | fraction unbound at 2 h, 5 μM [2]: 0.0353 ± 0.00151 | Percent Infectivity of HIV-1 Virions in comparison to virus-alone control ([3]; 0.01 μM, added 8 h post-infection): 100.0% | Percent Infectivity of HIV-1 Virions in comparison to virus-alone control ([3]; 0.01 μM, added 16 h post-infection): 117.0% | Percent Infectivity of HIV-1 Virions in comparison to virus-alone control ([3]; 0.01 μM, added 24 h post-infection): 404.8% | Percent Infectivity of HIV-1 Virions in comparison to virus-alone control ([3]; 0.1 μM, added 8 h post-infection): 5.6% | Percent Infectivity of HIV-1 Virions in comparison to virus-alone control ([3]; 0.1 μM, added 16 h post-infection): 10.0% | Percent Infectivity of HIV-1 Virions in comparison to virus-alone control ([3]; 0.1 μM, added 24 h post-infection): 128.0% | reduction of virion infectivity vs virus-only control ([3]; 1 μM at 24 hours post-infection): ~90% | Percent Infectivity of HIV-1 Virions in comparison to virus-alone control ([3]; 1 μM, added 8 h post-infection): 0.1% | Percent Infectivity of HIV-1 Virions in comparison to virus-alone control ([3]; 1 μM, added 16 h post-infection): 7.8% | Percent Infectivity of HIV-1 Virions in comparison to virus-alone control ([3]; 1 μM, added 24 h post-infection): 12.8% | reduction of virion infectivity vs virus-only control ([3]; 0.1 or 1 μM at 8 and 16 hours post-infection): at least 90% | time of addition up to which antiviral activity (reduced p24) was seen ([4]; 0.1 μM): up to 16 hours post-infection | time of addition up to which antiviral activity (reduced p24) was seen ([4]; 1 μM): up to 24 hours post-infection | EC50 [5]: 9 nM | TC50 [6]: >1000 nM | TC50 ([7]; 3 days): >1000 nM | TC50 ([7]; 4 days): >1000 nM | TC50 ([7]; 5 days): >1000 nM | TC50 ([7]; 6 days): >1000 nM | EC50 ([8]; 0 h): < 3 nM | EC50 ([8]; 24 h): 4 nM | EC50 ([8]; 48 h): 5 nM | EC50 ([8]; 72 h): 10 nM | EC50 [9]: 40 nM

COc1cc(-c2ccc(/N=N/c3ccc4c(S(=O)(=O)O)cc(S(=O)(=O)O)c(N)c4c3O)c(OC)c2)ccc1/N=N/c1ccc2c(S(=O)(=O)O)cc(S(=O)(=O)O)c(N)c2c1O [Chicago Sky Blue]
EC50 ([1]; exposure 2 h pre-infection, read-out: EC50): > 10 µg/mL | EC50 ([1]; exposure 8 h pre-infection, read-out: EC50): > 10 µg/mL | EC50 ([1]; exposure 24 h pre-infection, read-out: EC50): > 10 µg/mL | antiviral activity after pre-treatment of cells ([1]; concentrations up to 10 μg/mL): did not demonstrate antiviral activity | Percent Infectivity of HIV-1 Virions in comparison to virus-alone control ([3]; 0.5 μg/mL, added 8 h post-infection): 100.0% | Percent Infectivity of HIV-1 Virions in comparison to virus-alone control ([3]; 0.5 μg/mL, added 16 h post-infection): 177.8% | Percent Infectivity of HIV-1 Virions in comparison to virus-alone control ([3]; 0.5 μg/mL, added 24 h post-infection): 266.4% | Percent Infectivity of HIV-1 Virions in comparison to virus-alone control ([3]; 5 μg/mL, added 8 h post-infection): 100.0% | Percent Infectivity of HIV-1 Virions in comparison to virus-alone control ([3]; 5 μg/mL, added 16 h post-infection): 331.2% | Percent Infectivity of HIV-1 Virions in comparison to virus-alone control ([3]; 5 μg/mL, added 24 h post-infection): 100.0% | Percent Infectivity of HIV-1 Virions in comparison to virus-alone control ([3]; 50 μg/mL, added 8 h post-infection): 100.0% | Percent Infectivity of HIV-1 Virions in comparison to virus-alone control ([3]; 50 μg/mL, added 16 h post-infection): 562.3% | Percent Infectivity of HIV-1 Virions in comparison to virus-alone control ([3]; 50 μg/mL, added 24 h post-infection): 100.0% | effect on p24 levels ([4]; added at any time after infection, even at 50 μg/mL): did not affect p24 levels | TC50 ([7]; 3 days): 5.6 µg/mL | TC50 ([7]; 4 days): 5.5 µg/mL | TC50 ([7]; 5 days): 4.9 µg/mL | TC50 ([7]; 6 days): 8.2 µg/mL | EC50 ([8]; drug addition 0 h post-infection, read-out: EC50): 1.84 µg/mL | EC50 ([8]; drug addition 24 h post-infection, read-out: EC50): > 10 µg/mL | EC50 ([8]; drug addition 48 h post-infection, read-out: EC50): > 10 µg/mL | EC50 ([8]; drug addition 72 h post-infection, read-out: EC50): > 10 µg/mL
